Values of other authors, collected in patent publication US5585490A, “Certain cycloalkyl and azacycloalkyl pyrrolopyrimidines; a new class of GABA brain receptor ligands” (priority 1993, dated 1996).

System: benzodiazepine binding site
Details: Tallman et al., 1978, Nature, 274: 383-85

Compound: CN1CCc2cc3c(cc2C1C1OC(=O)c2c1ccc1c2OCO1)OCO3 (single isomer, unassigned; (+)) [(+) bicuculline]
- Enhancement of benzodiazepine binding by GABA agonists is blocked: blocked

Compound: CN1CCc2cc3c(cc2C1C1OC(=O)c2c1ccc1c2OCO1)OCO3 (single isomer, unassigned; (-)) [(-) bicuculline]
- Enhancement of benzodiazepine binding by GABA agonists is blocked: much less active
